Experimental data reported in US20260262643A1, “HERBICIDAL BENZOXAZINES” (FMC CORPORATION, priority 2022, published 2026).

Assays:
[1] = test system: barnyardgrass; experiment: Test C preemergence; format: in vivo, Echinochloa crusgalli; settings: 0 to 100 scale (0 no effect, 100 complete control); for Plant response rating, Barnyardgrass: Preemergence, 500 g ai/ha, visual rating after 10 days; for Barnyardgrass plant response rating: Test C, preemergence, 125 g ai/ha
Summary of the method: (§1)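 Greenhouse herbicide screen, 10-day duration. Test chemicals in solvent/surfactant blend were sprayed onto soil at sowing (pre) or onto 2–10 cm seedlings at one to two leaves (post); injury scored visually against controls, 0 no effect to 100 complete control.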

[2] = test system: blackgrass; experiment: Test C preemergence; format: in vivo, Alopecurus myosuroides; settings: 0 to 100 scale (0 no effect, 100 complete control); for Plant response rating, Blackgrass: Preemergence, 500 g ai/ha, visual rating after 10 days; for Blackgrass plant response rating: Test C, preemergence, 125 g ai/ha
Summary of the method: as §1

[3] = test system: corn; experiment: Test C preemergence; format: in vivo, Zea mays; settings: 0 to 100 scale (0 no effect, 100 complete control); for Plant response rating, Corn: Preemergence, 500 g ai/ha, visual rating after 10 days; for Corn plant response rating: Test C, preemergence, 125 g ai/ha
Summary of the method: as §1

[4] = test system: green foxtail; experiment: Test C preemergence; format: in vivo, Setaria viridis; settings: 0 to 100 scale (0 no effect, 100 complete control); for Plant response rating, Foxtail, Green: Preemergence, 500 g ai/ha, visual rating after 10 days; for Foxtail, Green plant response rating: Test C, preemergence, 125 g ai/ha
Summary of the method: as §1

[5] = test system: kochia; experiment: Test C preemergence; format: in vivo, Bassia scoparia; settings: 0 to 100 scale (0 no effect, 100 complete control); for Plant response rating, Kochia: Preemergence, 500 g ai/ha, visual rating after 10 days; for Kochia plant response rating: Test C, preemergence, 125 g ai/ha
Summary of the method: as §1

[6] = test system: oat, wild; experiment: Test C preemergence; format: in vivo, Avena fatua; settings: 0 to 100 scale (0 no effect, 100 complete control); for Plant response rating, Oat, Wild: Preemergence, 500 g ai/ha, visual rating after 10 days; for Oat, Wild plant response rating: Test C, preemergence, 125 g ai/ha
Summary of the method: as §1

[7] = test system: pigweed, palmer; experiment: Test C preemergence; format: in vivo, Amaranthus palmeri; settings: 0 to 100 scale (0 no effect, 100 complete control); for Plant response rating, Pigweed, Palmer: Preemergence, 500 g ai/ha, visual rating after 10 days; for Pigweed, Palmer plant response rating: Test C, preemergence, 125 g ai/ha
Summary of the method: as §1

[8] = test system: ragweed; experiment: Test C preemergence; format: in vivo, Ambrosia artemisiifolia; settings: 0 to 100 scale (0 no effect, 100 complete control); for Plant response rating, Ragweed: Preemergence, 500 g ai/ha, visual rating after 10 days; for Ragweed plant response rating: Test C, preemergence, 125 g ai/ha
Summary of the method: as §1

[9] = test system: ryegrass, Italian; experiment: Test C preemergence; format: in vivo, Lolium multiflorum; settings: 0 to 100 scale (0 no effect, 100 complete control); for Plant response rating, Ryegrass, Italian: Preemergence, 500 g ai/ha, visual rating after 10 days; for Ryegrass, Italian plant response rating: Test C, preemergence, 125 g ai/ha
Summary of the method: as §1

[10] = test system: soybean; experiment: Test C preemergence; format: in vivo, Glycine max; settings: 0 to 100 scale (0 no effect, 100 complete control); for Plant response rating, Soybean: Preemergence, 500 g ai/ha, visual rating after 10 days; for Soybean plant response rating: Test C, preemergence, 125 g ai/ha
Summary of the method: as §1

[11] = test system: wheat; experiment: Test C preemergence; format: in vivo, Triticum aestivum; settings: 0 to 100 scale (0 no effect, 100 complete control); for Plant response rating, Wheat: Preemergence, 500 g ai/ha, visual rating after 10 days; for Wheat plant response rating: Test C, preemergence, 125 g ai/ha
Summary of the method: as §1

[12] = test system: barnyardgrass; experiment: Test C postemergence; format: in vivo, Echinochloa crusgalli; settings: 10 days
Summary of the method: as §1

[13] = test system: blackgrass; experiment: Test C postemergence; format: in vivo, Alopecurus myosuroides; settings: 10 days
Summary of the method: as §1

[14] = test system: corn; experiment: Test C postemergence; format: in vivo, Zea mays; settings: 10 days
Summary of the method: as §1

[15] = test system: green foxtail; experiment: Test C postemergence; format: in vivo, Setaria viridis; settings: 10 days
Summary of the method: as §1

[16] = test system: kochia; experiment: Test C postemergence; format: in vivo, Bassia scoparia; settings: 10 days
Summary of the method: as §1

[17] = test system: oat, wild; experiment: Test C postemergence; format: in vivo, Avena fatua; settings: 10 days
Summary of the method: as §1

[18] = test system: pigweed, palmer; experiment: Test C postemergence; format: in vivo, Amaranthus palmeri; settings: 10 days
Summary of the method: as §1

[19] = test system: ragweed; experiment: Test C postemergence; format: in vivo, Ambrosia artemisiifolia; settings: 10 days
Summary of the method: as §1

[20] = test system: ryegrass, Italian; experiment: Test C postemergence; format: in vivo, Lolium multiflorum; settings: 10 days
Summary of the method: as §1

[21] = test system: soybean; experiment: Test C postemergence; format: in vivo, Glycine max; settings: 10 days
Summary of the method: as §1

[22] = test system: wheat; experiment: Test C postemergence; format: in vivo, Triticum aestivum; settings: 10 days
Summary of the method: as §1

[23] = test system: horseweed; experiment: Test C postemergence; format: in vivo, Erigeron canadensis; settings: 10 days
Summary of the method: as §1

[24] = test system: barnyardgrass; experiment: Test D flooded paddy test; format: in vivo, Echinochloa crus-galli; settings: 250 g ai/ha, applied to paddy water, visual rating after 13 to 14 days, scale 0 to 100 (0 no effect, 100 complete control)
Summary of the method: (§2)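 Rating scale 0–100 (0 no effect, 100 complete control), visual, versus controls. Readout at 13–14 days after in-water application to 2-leaf plants in pots flooded 3 cm deep.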

[25] = test system: ducksalad; experiment: Test D flooded paddy test; format: in vivo, Heteranthera limosa; settings: 250 g ai/ha, applied to paddy water, visual rating after 13 to 14 days, scale 0 to 100 (0 no effect, 100 complete control)
Summary of the method: as §2

[26] = test system: rice; experiment: Test D flooded paddy test; format: in vivo, Oryza sativa; settings: 250 g ai/ha, applied to paddy water, visual rating after 13 to 14 days, scale 0 to 100 (0 no effect, 100 complete control)
Summary of the method: as §2

[27] = test system: sedge, umbrella; experiment: Test D flooded paddy test; format: in vivo, Cyperus difformis; settings: 250 g ai/ha, applied to paddy water, visual rating after 13 to 14 days, scale 0 to 100 (0 no effect, 100 complete control)
Summary of the method: as §2

[28] = 125 g ai/ha, postemergence, 0 to 100 scale, 0 no effect, 100 complete control
[29] = Postemergence, 500 g ai/ha, visual 0 to 100 scale (0 no effect, 100 complete control)

COc1cc(C(=O)N2C[C@H](C)Oc3c(Cl)cccc32)cc(-n2cnc(C(C)(C)C)n2)c1 [Compound 213]
Plant response rating, Barnyardgrass [1]: 100 | Barnyardgrass plant response rating [1]: 60 | Plant response rating, Blackgrass [2]: 80 | Blackgrass plant response rating [2]: 60 | Plant response rating, Corn [3]: 10 | Corn plant response rating [3]: 0 | Plant response rating, Foxtail, Green [4]: 100 | Foxtail, Green plant response rating [4]: 100 | Plant response rating, Kochia [5]: 100 | Kochia plant response rating [5]: 30 | Plant response rating, Oat, Wild [6]: 70 | Oat, Wild plant response rating [6]: 10 | Plant response rating, Pigweed, Palmer [7]: 100 | Pigweed, Palmer plant response rating [7]: 100 | Plant response rating, Ragweed [8]: 30 | Ragweed plant response rating [8]: 0 | Plant response rating, Ryegrass, Italian [9]: 90 | Ryegrass, Italian plant response rating [9]: 90 | Plant response rating, Soybean [10]: 100 | Soybean plant response rating [10]: 50 | Plant response rating, Wheat [11]: 90 | Wheat plant response rating [11]: 10 | Plant response rating, Barnyardgrass [12, 28]: 20 | Plant response rating, Barnyardgrass [12, 29]: 30 | Plant response rating, Blackgrass [13, 28]: 0 | Plant response rating, Blackgrass [13, 29]: 70 | Plant response rating, Corn [14, 28]: 10 | Plant response rating, Corn [14, 29]: 20 | Plant response rating, Foxtail, Green [15, 28]: 40 | Plant response rating, Foxtail, Green [15, 29]: 70 | Plant response rating, Kochia [16, 28]: 90 | Plant response rating, Kochia [16, 29]: 90 | Plant response rating, Oat, Wild [17, 28]: 10 | Plant response rating, Oat, Wild [17, 29]: 20 | Plant response rating, Pigweed, Palmer [18, 28]: 100 | Plant response rating, Pigweed, Palmer [18, 29]: 100 | Plant response rating, Ragweed [19, 28]: 30 | Plant response rating, Ragweed [19, 29]: 80 | Plant response rating, Ryegrass, Italian [20, 28]: 30 | Plant response rating, Ryegrass, Italian [20, 29]: 60 | Plant response rating, Soybean [21, 28]: 100 | Plant response rating, Soybean [21, 29]: 100 | Plant response rating, Wheat [22, 28]: 20 | Plant response rating, Wheat [22, 29]: 20 | Plant response rating, Horseweed [23, 28]: 20 | Plant response rating, Horseweed [23, 29]: 30 | Plant response rating, Barnyardgrass (Flood) [24]: 20 | Plant response rating, Ducksalad (Flood) [25]: 90 | Plant response rating, Rice (Flood) [26]: 0 | Plant response rating, Sedge, Umbrella (Flood) [27]: 100

COc1cc(C(=O)N2C[C@H](C)Oc3c(Cl)cccc32)cc(-n2cnc(C)n2)c1 [Compound 215]
Plant response rating, Barnyardgrass [1]: 100 | Barnyardgrass plant response rating [1]: 80 | Plant response rating, Blackgrass [2]: 90 | Blackgrass plant response rating [2]: 70 | Plant response rating, Corn [3]: 60 | Corn plant response rating [3]: 30 | Plant response rating, Foxtail, Green [4]: 100 | Foxtail, Green plant response rating [4]: 100 | Plant response rating, Kochia [5]: 100 | Kochia plant response rating [5]: 90 | Plant response rating, Oat, Wild [6]: 90 | Oat, Wild plant response rating [6]: 50 | Plant response rating, Pigweed, Palmer [7]: 100 | Pigweed, Palmer plant response rating [7]: 100 | Plant response rating, Ragweed [8]: 30 | Ragweed plant response rating [8]: 0 | Plant response rating, Ryegrass, Italian [9]: 100 | Ryegrass, Italian plant response rating [9]: 90 | Plant response rating, Soybean [10]: 100 | Soybean plant response rating [10]: 80 | Plant response rating, Wheat [11]: 90 | Wheat plant response rating [11]: 20 | Plant response rating, Barnyardgrass [12, 28]: 60 | Plant response rating, Barnyardgrass [12, 29]: 70 | Plant response rating, Blackgrass [13, 28]: 90 | Plant response rating, Blackgrass [13, 29]: 90 | Plant response rating, Corn [14, 28]: 70 | Plant response rating, Corn [14, 29]: 90 | Plant response rating, Foxtail, Green [15, 28]: 90 | Plant response rating, Foxtail, Green [15, 29]: 90 | Plant response rating, Kochia [16, 28]: 80 | Plant response rating, Kochia [16, 29]: 90 | Plant response rating, Oat, Wild [17, 28]: 30 | Plant response rating, Oat, Wild [17, 29]: 50 | Plant response rating, Pigweed, Palmer [18, 28]: 90 | Plant response rating, Pigweed, Palmer [18, 29]: 100 | Plant response rating, Ragweed [19, 28]: 60 | Plant response rating, Ragweed [19, 29]: 70 | Plant response rating, Ryegrass, Italian [20, 28]: 70 | Plant response rating, Ryegrass, Italian [20, 29]: 90 | Plant response rating, Soybean [21, 28]: 100 | Plant response rating, Soybean [21, 29]: 100 | Plant response rating, Wheat [22, 28]: 30 | Plant response rating, Wheat [22, 29]: 70 | Plant response rating, Horseweed [23, 28]: 0 | Plant response rating, Horseweed [23, 29]: 70 | Plant response rating, Barnyardgrass (Flood) [24]: 50 | Plant response rating, Ducksalad (Flood) [25]: 100 | Plant response rating, Rice (Flood) [26]: 55 | Plant response rating, Sedge, Umbrella (Flood) [27]: 100
